Measurements as given in US10413583B2, “Synthetic substrates for enzymes that catalyze reactions of modified cysteines and related methods” (The University of Chicago, priority 2016, dated 2019).

Tests used:
Format in all cases: cell-based, human
HeLa cells = test: Epifluorescent imaging of DPP-5 with PalmB in HeLa cells
Method: 250,000 HEK293T cells/well, 120,000 HeLa cells/well, or 100,000 HepG2 cells/well were plated in 700 μL DMEM glutamax (10% FBS+1% P/S) into 4-well chambered imaging dish (D35C4-20-1.5-N, Cellvis, Mountain View, Calif., United States of America), which were precoated with 5 μg Poly-D-lysine (30-70 KDa, Alfa Aesar, Haverhill, Mass., United States of America) for 2 h. After 20-24 h, the media was replaced by 1 μM Hoechst 33342 and DMSO/5 μM PalmB in 400 μL DMEM glutamax. After 30 min of incubation at 37° C., the cells were washed with 400 μL of Live Cell Imaging Solution and replaced by 1 μM DPP-5 with DMSO or 5 μM of PalmB in Live Cell Imaging Solution. […] For data analysis, the average fluorescence intensity per image in each experimental condition was obtained by selecting ROI in Brightfield and applying that to the corresponding DPP-5 image, average background fluorescence intensity was subtracted and data was normalized to the average fluorescence intensity of the DMSO control. […]

MCF-7 cells = test: Flow cytometry of DPP-3 in MCF-7 cells; settings: 1 μM inhibitor, 5 μM DPP-3, 5 min
Method: Cells were plated on a 10 cm dish with 10 mL of DMEM/High Glucose (10% FBS, 1% P/S, L-Glutamine, Sodium pyruvate) 36-48 hours prior to the day of experiment and maintained at 37° C., 5% CO2 so as to obtain 80-90% confluency. Cells were washed with DPBS and trypsinized with 1 mL 0.05% Trypsin. 5 mL of DMEM/High Glucose (10% FBS, L-Glutamine, Sodium pyruvate) was added and cells were spun down at 1200 rpm for 3 min. Media was discarded and cells were resuspended in 5 mL of Live Cell Imaging Solution and again spun down at 1200 rpm for 3 min. The cells pellets obtained were resuspended in 3-5 mL of Live Cell Imaging Solution and divided into 500 μL aliquots. The aliquots were treated with either 0.2% DMSO carrier or 1 μM of PalmB/ML348 or 1 μM/5 μM of ML349 inhibitor. After 30 min of incubation at room temperature, 1 μL of 2.5 mM DPP-3 in DMSO was added to each aliquot for a final concentration of 5 μM, and the solutions were mixed. After 5 min incubation at room temperature, fluorescence signal in FITC channel was measured for 10000 cells (5000 for HeLa experiments) on a LSR-Fortessa 4-15 HTS (BD digital instrument, 488 nm laser with 530/30 nm filter for FITC; BD, Franklin Lakes, N.J., United States of America). For analyzing DPP2 in HEK293T cells, the aliquots were treated with either 0.2% DMSO carrier or 2 μM of PalmB, 5 or 20 μM of ML348/ML349 and then analyzed by the protocol as mentioned above. Data was analyzed by FlowJo software version 10.0.8. For comparison of A431 starved versus non-starved, parallel 10 cm dishes of A431 cells were plated in 10 mL of DMEM (high glucose, 10% FBS, 1% P/S), and grown for 36 h. The growth media was removed, and replaced by 10 mL of either DMEM (High glucose) with 10% FBS to maintain “growth” conditions, or DMEM (High glucose) without FBS respectively for “starvation” conditions, and incubated for 14 h. After trypsinization, both plates were treated with 5 mL of DMEM (high glucose) for spinning the cells down, and further processing and analysis were performed as described above by flow cytometry.

HEPG2 cells = test: Epifluorescent imaging of DPP-5 and diacetyl rhodol in HepG2 cells (PalmB, ML348, ML349, palmitate); settings: for decrease in intensity of the signal from DPP-5: 10 μM inhibitor
Method: 250,000 HEK293T cells/well, 120,000 HeLa cells/well, or 100,000 HepG2 cells/well were plated in 700 μL DMEM glutamax (10% FBS+1% P/S) into 4-well chambered imaging dish (D35C4-20-1.5-N, Cellvis, Mountain View, Calif., United States of America), which were precoated with 5 μg Poly-D-lysine (30-70 KDa, Alfa Aesar, Haverhill, Mass., United States of America) for 2 h. After 20-24 h, the media was replaced by 1 μM Hoechst 33342 and DMSO/5 μM PalmB in 400 μL DMEM glutamax. After 30 min of incubation at 37° C., the cells were washed with 400 μL of Live Cell Imaging Solution and replaced by 1 μM DPP-5 with DMSO or 5 μM of PalmB in Live Cell Imaging Solution. After 20 min of incubation at 37° C., images were obtained on an inverted epifluorescence microscope (Olympus IX83; Olympus Corporation, Tokyo, Japan) attached with EMCCD camera (Photometrics EVOLVE™ Delta, Photometrics, Tucson, Ariz., United States of America) with 40× oil objective (N/A 1.3) for DPP-5 (excitation filter 500/20, dichroic chroma 89007, emission filter 535/30), Hoechst 33342 (excitation filter 402/15, emission filter 455/50, dichroic chroma 89013), and brightfield. Analyses were performed in ImageJ. For data analysis, the average fluorescence intensity per image in each experimental condition was obtained by selecting ROI in Brightfield and applying that to the corresponding DPP-5 image, average background fluorescence intensity was subtracted and data was normalized to the average fluorescence intensity of the DMSO control. Each experiment was repeated in at least two biological replicates with identical results.
16,000 HepG2 cells/well were plated in 100 μL DMEM glutamax (10% fetal bovine serum (FBS)) into 4 wells of a 96-well chambered imaging dish (P96-1-N, Cellvis, Mountain View Calif., United States of America), which were precoated with 0.7 μg Poly-D-lysine (30-70 KDa, Alfa Aesar, Haverhill, Mass., United States of America) for 2 hrs. After 24 h, cells were washed with Live Cell Imaging Solution and replaced by 1 μM Hoechst 33342 and DMSO/10 μM ML348/10 μM ML349/10 μM of both ML348 and ML349 in 100 μL DMEM glutamax. After 30 min of incubation at 37° C., the cells were washed with 100 μL of Live Cell Imaging Solution and replaced by 1 μM DPP-5 in Live Cell Imaging Solution. After 20 min of incubation at 37° C., images were obtained on an inverted epifluorescence microscope (Leica DMi8; Leica Microsystems, Wetzlar, Germany) equipped with a camera (Hamamatsu Orca-Flash 4.0; Hamamatsu, Hamamatsu City, Japan) with 63× oil objective (N/A 1.4) and light source (Sutter Lamda XL, 300 W Xenon; Sutter Instrument, Novato, Calif., United States of America) for DPP-5 (YFP filter cube 1525306), Hoechst 33342 (DAPI filter cube), and brightfield using Leica LASX software (Leica Microsystems, Wetzlar, Germany). Analyses were performed in ImageJ. Each experiment was repeated in three biological replicates and 8-12 images were considered for plotting bar graphs for quantification. For detailed data analysis, the average fluorescence intensity per image in each experimental condition was obtained by selecting ROI in Brightfield and applying that to the corresponding DPP-5 image, average background fluorescence intensity was subtracted and data was normalized to the average fluorescence intensity of the control experiment. […] 250,000 HEK293T cells/well were plated in 700 μL DMEM glutamax (10% FBS+1% P/S) into three wells of a 4-well chambered imaging dish (D35C4-20-1.5-N, Cellvis, Mountain View, Calif., United States of America), which were precoated with 5 μg Poly-Dlysine (30-70 KDa, Alfa Aesar, Haverhill, Mass., United States of America) for 2 h. After 18 h, the media was replaced by 1 μM Hoechst 33342 in 400 μL DMEM glutamax. […] After 20 min of incubation at 37° C., images were obtained and analyzed as described above. […]

[1] = 5 μM PalmB pretreatment, 1 μM DPP-5

## CCCCCCCCCC[C@@H]1C(=O)O[C@H]1CCc1ccc(OC)c(OC)c1 [PalmB, palmostatin B]
HeLa cells; [1]
  turn-on response of DPP-5 blocked: more than 95%
MCF-7 cells
  effect of inhibitor on depalmitoylation signal measured by DPP-3: knocks down the depalmitoylation signal
HEPG2 cells; [1]
  turn-on response of DPP-5 blocked: more than 95%
HEPG2 cells; 1% BSA with or without 1 mM palmitate, 5 μM PalmB
  effect on DPP-5 signal in palmitate experiment: reduces the intensity of the DPP-5 signal

## O=C(CN1CCN(C(=O)c2ccco2)CC1)Nc1cc(C(F)(F)F)ccc1Cl [ML348]
MCF-7 cells
  effect of inhibitor on depalmitoylation signal measured by DPP-3: knocks down the depalmitoylation signal
HEPG2 cells; 1 μM DPP-5
  decrease in intensity of the signal from DPP-5: about 30%

## CCCCCCCCCCCCCCCC(=O)SC[C@@H](C(=O)NC)N(C)C(=O)Oc1ccc2c(c1)Oc1cc(N3CCN(C(=O)CCC(=O)O)CC3)ccc1C21OC(=O)c2ccccc21 (stereo partly drawn) [DPP-5]
HeLa cells; 1 μM probe for 20 minutes
  probe fluorescent signal in cells: robust intracellular fluorescent signal
HEPG2 cells; 1 μM probe for 20 minutes
  probe fluorescent signal in cells: robust intracellular fluorescent signal

## COc1ccc(N2CCN(C(=O)c3cc4c(s3)-c3ccccc3S(=O)(=O)C4)CC2)cc1 [ML349]
HEPG2 cells; 1 μM DPP-5
  decrease in intensity of the signal from DPP-5: no change in signal
